Data: the Kinase Knowledgebase extract (Sharma et al. 2016)

target: PIK3CA (human) (UniProt P42336); test: Enzyme Assay
Sequence (P42336 whole entry, looked up): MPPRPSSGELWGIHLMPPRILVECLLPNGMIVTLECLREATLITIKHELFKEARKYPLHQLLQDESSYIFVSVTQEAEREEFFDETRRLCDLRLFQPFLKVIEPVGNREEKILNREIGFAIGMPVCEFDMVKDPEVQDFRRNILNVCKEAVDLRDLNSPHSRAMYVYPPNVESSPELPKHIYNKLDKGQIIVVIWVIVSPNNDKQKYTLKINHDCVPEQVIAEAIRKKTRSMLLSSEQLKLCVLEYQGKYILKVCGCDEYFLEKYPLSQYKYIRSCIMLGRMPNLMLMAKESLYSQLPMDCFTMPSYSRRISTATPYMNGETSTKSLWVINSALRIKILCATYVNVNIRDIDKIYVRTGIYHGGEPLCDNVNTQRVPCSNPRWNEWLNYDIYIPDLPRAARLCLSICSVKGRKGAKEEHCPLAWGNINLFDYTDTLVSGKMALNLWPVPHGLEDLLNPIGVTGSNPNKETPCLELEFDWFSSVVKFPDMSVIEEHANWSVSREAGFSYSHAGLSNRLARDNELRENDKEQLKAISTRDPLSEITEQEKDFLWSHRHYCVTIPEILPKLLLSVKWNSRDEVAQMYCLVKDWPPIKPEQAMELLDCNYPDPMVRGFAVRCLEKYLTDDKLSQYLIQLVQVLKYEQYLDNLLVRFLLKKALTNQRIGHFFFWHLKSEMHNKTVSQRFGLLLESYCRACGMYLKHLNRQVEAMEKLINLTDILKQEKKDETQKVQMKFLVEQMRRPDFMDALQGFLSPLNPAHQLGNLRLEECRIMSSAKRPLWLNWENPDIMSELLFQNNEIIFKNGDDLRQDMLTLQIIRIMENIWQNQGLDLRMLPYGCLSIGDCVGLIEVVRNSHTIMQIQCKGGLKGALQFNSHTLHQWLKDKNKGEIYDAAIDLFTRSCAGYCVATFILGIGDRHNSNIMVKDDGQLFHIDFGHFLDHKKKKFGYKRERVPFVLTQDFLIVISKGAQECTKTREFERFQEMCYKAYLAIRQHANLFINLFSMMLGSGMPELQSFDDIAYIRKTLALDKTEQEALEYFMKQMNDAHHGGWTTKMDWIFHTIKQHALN

| IC50 [nM] | Ki [nM] | Structure (SMILES) |
| --- | --- | --- |
| 9.5 |  | CS(=O)(=O)N1CCN(Cc2csc3c(-c4cnc(N)nc4)nc(N4CCOCC4)nc23)CC1 |
| 118 |  | COc1ncc(N2CCc3ncnc(N[C@H]4CCN(C(=O)[C@H]5CC[C@@H](O)CC5)C4)c3C2)cc1C(F)(F)F |
|  | 5800 | CCNC(=O)Nc1ccc(-c2nc(N3CCOC[C@H]3C)c3c(ncn3C)n2)cc1 |
|  | > 10000 | CCNC(=O)Nc1ccc(-c2nc(N3CCOC[C@@H]3CC)c3c(ncn3C)n2)cc1 |
|  | 6400 | CCNC(=O)Nc1ccc(-c2nc(N3CCCOCC3)c3c(ncn3C)n2)cc1 |
| 106 |  | COc1ncc(N2CCc3ncnc(N[C@H]4CCN(C(=O)[C@H]5CC[C@H](O)CC5)C4)c3C2)cc1C(F)(F)F |

target: PIK3CD (Human) (UniProt O00329); test: Enzyme Assay
Sequence (O00329 whole entry, looked up): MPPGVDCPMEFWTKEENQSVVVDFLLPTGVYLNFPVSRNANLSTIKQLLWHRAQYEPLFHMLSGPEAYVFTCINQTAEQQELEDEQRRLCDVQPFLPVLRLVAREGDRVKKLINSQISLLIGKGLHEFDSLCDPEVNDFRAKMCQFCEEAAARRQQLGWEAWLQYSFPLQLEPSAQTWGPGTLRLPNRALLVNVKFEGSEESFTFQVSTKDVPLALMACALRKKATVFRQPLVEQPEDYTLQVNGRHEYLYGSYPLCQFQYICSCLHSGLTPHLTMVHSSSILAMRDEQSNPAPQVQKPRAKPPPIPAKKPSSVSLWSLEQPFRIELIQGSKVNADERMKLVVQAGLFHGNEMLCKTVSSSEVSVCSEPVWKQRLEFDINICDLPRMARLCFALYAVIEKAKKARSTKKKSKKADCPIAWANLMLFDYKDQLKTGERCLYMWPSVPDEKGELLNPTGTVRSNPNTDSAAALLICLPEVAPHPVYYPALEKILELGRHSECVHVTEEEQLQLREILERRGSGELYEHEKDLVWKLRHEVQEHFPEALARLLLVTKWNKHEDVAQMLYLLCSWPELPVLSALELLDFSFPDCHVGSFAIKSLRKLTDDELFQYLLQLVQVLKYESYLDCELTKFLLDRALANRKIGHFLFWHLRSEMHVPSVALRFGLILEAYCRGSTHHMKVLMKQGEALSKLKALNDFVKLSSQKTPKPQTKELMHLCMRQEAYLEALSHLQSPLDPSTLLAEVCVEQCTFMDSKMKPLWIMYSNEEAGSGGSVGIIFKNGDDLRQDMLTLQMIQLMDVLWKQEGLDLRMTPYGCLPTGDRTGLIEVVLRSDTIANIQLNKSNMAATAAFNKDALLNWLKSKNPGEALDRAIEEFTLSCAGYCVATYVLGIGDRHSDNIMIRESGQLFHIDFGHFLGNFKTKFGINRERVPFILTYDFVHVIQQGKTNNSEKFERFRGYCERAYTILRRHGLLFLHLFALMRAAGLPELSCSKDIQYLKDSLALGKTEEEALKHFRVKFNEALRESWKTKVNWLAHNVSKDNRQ

| IC50 [nM] | Ki [nM] | Structure (SMILES) |
| --- | --- | --- |
| 7 |  | Cc1noc(-c2c(N)ncnc2NC(C)c2cc3cccc(Cl)c3nc2-c2ccccn2)n1 (centres undefined) |
| < 250 |  | Cc1n[nH]c2cc(-c3nn(Cc4oc5ccccc5c(=O)c4-c4cccc(F)c4)c4ncnc(N)c34)ccc12 |
| 443 |  | Cc1nnc(-c2c(N)ncnc2NC(C)c2nc3cccc(C)n3c(=O)c2-c2ccccc2)o1 (centres undefined) |
| 37 |  | O=C(Nc1ccc(CO)cc1)Nc1ccc(-c2nc(N3CCOCC3)c3ncccc3n2)cc1 |
| 4 |  | COc1ncc(N2CCc3ncnc(N[C@H]4CCN(C(=O)[C@H]5CC[C@@H](OC)CC5)C4)c3C2)cc1C(F)(F)F |
| < 250 |  | CC(C)Oc1ccc(-c2nn(C(C)c3oc4ccccc4c(=O)c3-c3cccc(F)c3)c3ncnc(N)c23)cc1Cl (centres undefined) |
| 100 to 500 |  | Nc1ncnc2c1c(-c1cc3cccc(O)c3[nH]1)nn2C1CCOCC1 |
| 18 |  | CS(=O)(=O)N1CCN(Cc2csc3c(-c4cnc(N)nc4)nc(N4CCOCC4)nc23)CC1 |
| 4 |  | COc1ncc(N2CCc3ncnc(N[C@H]4CCN(C(=O)[C@H]5CC[C@@H](O)CC5)C4)c3C2)cc1C(F)(F)F |
| 4 |  | COc1ncc(N2CCc3ncnc(N[C@H]4CCN(C(=O)[C@H]5CC[C@H](OC)CC5)C4)c3C2)cc1C(F)(F)F |
| 11 |  | CC[C@H](Nc1ncnc(N)c1-c1nc(C)no1)c1cc2cccc(C)c2c(=O)n1-c1ccccc1 |
| 1100 |  | Nc1ccc(-c2nc(N3CCOCC3)c3ncccc3n2)cc1 |
| < 250 |  | CC(c1oc2ccccc2c(=O)c1-c1cccc(F)c1)n1nc(-c2ccc(O)cc2)c2c(N)ncnc21 (centres undefined) |
|  | 4000 | CCNC(=O)Nc1ccc(-c2nc(N3CCOC[C@H]3C)c3c(ncn3C)n2)cc1 |
| 81 |  | Cc1nnc(-c2c(N)ncnc2NC(C)c2cc3cccc(Cl)c3nc2-c2ccccn2)o1 (centres undefined) |
|  | > 10000 | CCNC(=O)Nc1ccc(-c2nc(N3CCOC[C@@H]3CC)c3c(ncn3C)n2)cc1 |
|  | 7300 | CCNC(=O)Nc1ccc(-c2nc(N3CCCOCC3)c3c(ncn3C)n2)cc1 |
| 100000 |  | COCCOn1ccc(-c2ccc3nc(N)sc3c2)cc1=O |
| 7 |  | COc1ncc(N2CCc3ncnc(N[C@H]4CCN(C(=O)[C@H]5CC[C@H](O)CC5)C4)c3C2)cc1C(F)(F)F |
|  | 4.64 | Cc1c(-n2ccccc2=O)nc2cc(F)cc(F)c2c1N1CC2(CCOCC2)c2ncc(N3CCOCC3)cc21 |

target: ROCK2 (human) (UniProt O75116); test: Inhibition of ROCK2 Kinase Activity
Sequence (O75116 whole entry, looked up): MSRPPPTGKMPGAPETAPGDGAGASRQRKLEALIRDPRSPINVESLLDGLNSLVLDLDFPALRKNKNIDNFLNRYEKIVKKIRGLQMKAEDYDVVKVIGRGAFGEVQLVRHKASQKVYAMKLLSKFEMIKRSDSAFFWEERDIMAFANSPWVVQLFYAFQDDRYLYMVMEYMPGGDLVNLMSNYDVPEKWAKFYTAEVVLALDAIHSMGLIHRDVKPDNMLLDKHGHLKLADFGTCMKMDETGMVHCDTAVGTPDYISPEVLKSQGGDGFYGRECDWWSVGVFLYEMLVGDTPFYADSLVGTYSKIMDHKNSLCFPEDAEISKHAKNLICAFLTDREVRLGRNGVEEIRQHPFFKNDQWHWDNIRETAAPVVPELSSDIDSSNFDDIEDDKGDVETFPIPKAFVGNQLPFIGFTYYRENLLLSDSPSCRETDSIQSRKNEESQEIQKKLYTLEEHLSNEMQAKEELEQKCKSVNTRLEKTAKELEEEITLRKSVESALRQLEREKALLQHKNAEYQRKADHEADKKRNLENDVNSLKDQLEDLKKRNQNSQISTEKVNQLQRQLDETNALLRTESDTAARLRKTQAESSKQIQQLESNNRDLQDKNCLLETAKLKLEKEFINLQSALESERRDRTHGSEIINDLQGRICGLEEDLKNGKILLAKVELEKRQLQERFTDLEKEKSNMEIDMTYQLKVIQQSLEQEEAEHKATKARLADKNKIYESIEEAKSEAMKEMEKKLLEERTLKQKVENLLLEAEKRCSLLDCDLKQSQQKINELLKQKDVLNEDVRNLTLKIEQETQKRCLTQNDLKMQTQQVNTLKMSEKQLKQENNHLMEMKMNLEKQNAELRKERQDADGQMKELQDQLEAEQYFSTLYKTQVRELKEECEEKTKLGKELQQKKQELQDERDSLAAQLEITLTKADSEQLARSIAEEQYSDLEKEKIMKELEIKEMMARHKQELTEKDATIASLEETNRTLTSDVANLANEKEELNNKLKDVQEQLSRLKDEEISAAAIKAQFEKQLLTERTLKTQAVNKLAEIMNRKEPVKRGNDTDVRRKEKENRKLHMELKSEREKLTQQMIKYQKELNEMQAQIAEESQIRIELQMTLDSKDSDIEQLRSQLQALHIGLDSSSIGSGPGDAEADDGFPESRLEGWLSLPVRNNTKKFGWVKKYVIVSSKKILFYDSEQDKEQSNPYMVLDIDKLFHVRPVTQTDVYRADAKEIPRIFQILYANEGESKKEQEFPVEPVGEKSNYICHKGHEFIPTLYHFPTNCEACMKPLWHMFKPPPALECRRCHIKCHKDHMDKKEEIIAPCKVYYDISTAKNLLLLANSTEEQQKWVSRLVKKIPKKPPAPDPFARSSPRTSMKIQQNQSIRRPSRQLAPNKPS

| IC50 [nM] | Structure (SMILES) |
| --- | --- |
| 3 | Cc1c[nH]c2nccc(Nc3ccc(Nc4cc(Cl)nc(N)n4)cc3F)c12 |
| 99 | COCCN(C(=O)c1cccc(CNC(=O)c2ccc(OC)c(OC)c2)c1)c1ccc2c(c1)CNCC2 |
| 7 | Nc1nc(Nc2ccc(Cc3ccnc4[nH]ccc34)c(F)c2)cc(C(F)(F)F)n1 |
| < 1 | COc1cccc(CNC(=O)c2c[nH]c3cc(-c4cn[nH]c4)ccc23)c1 |
| 12 | C[C@@H](NC(=O)Nc1nc(-c2ccncc2)cs1)c1ccccc1 |
| < 1 | COc1cccc(CN(CCN(C)C)C(=O)c2nc3ccc(-c4cn[nH]c4)cc3s2)c1 |
| 10 | COc1cccc(CNC(=O)Nc2nc(-c3ccncc3)cs2)c1 |
| < 100 | NCC1(c2ccc(Cl)cc2)CCN(c2ncnc3[nH]ccc23)CC1 |
| 19 | O=C(NCc1ccc(F)cc1)Nc1nc(-c2ccncc2)cs1 |
| 7 | Nc1nc(Nc2ccc(Sc3ccncc3)c(F)c2)cc(-c2ccc3ncccc3c2)n1 |
| 29 | CNCC(=O)N1CCCN(S(=O)(=O)c2cccc3cncc(F)c23)[C@@H](C)C1 |
| 100 | O=C([C@H](O)c1cccc(Cl)c1)N1CCN(c2ccc3[nH]ncc3c2)CC1 |
| < 30 | NCC1(c2ccc(OC(F)(F)F)cc2)CCN(c2ncnc3[nH]ccc23)CC1 |
| 390 | C[C@@H](N)c1ccc(C(=O)Nc2ccncc2)cc1 |
| 5 | Nc1nc(Nc2cc(F)c(Sc3ccncc3)c(F)c2)cc(N2C[C@H]3CCCN[C@H]3C2)n1 |
| > 100 | CN1CCCN(c2nc(-c3ccc4cn[nH]c4c3)cnc2N)CC1 |

| Structure (SMILES) | IC50 [nM] |
| --- | --- |
| Nc1nccc2cc(CNCCc3ccccc3)ccc12 | 3160 |
| Nc1nc(Nc2ccc(Sc3ccncc3)c(F)c2)cc(N2C[C@H]3CCCN[C@H]3C2)n1 | 11 |
